From patent US8507483B2, “1H-pyrimidin-2-one derivatives, preparation thereof and pharmaceutical use thereof as inhibitors of AKT (PKB) phosphorylation” (Sanofi, priority 2009, dated 2013) come the findings set out here.

For the assay, the system named is AKT protein phosphorylated on serine 473 (P-AKT-S473) in PC3 human prostate carcinoma cells. In words: pAKT expression in PC3 cells measured by MSD Multi-spot Biomarker Detection (Test B). It counts as cell-based. The note with it: PC-3, inhibition of AKT Ser473 phosphorylation, 1 to 2 h incubation, MSD sandwich immunoassay, absolute IC50, mean of two experiments. How it is done: The inhibitory activity of the molecules on AKT phosphorylation is measured either by western blotting using the technique described below, or by the MSD Multi-spot Biomarker detection technique from Meso Scale Discovery also described below.
Where appropriate, the activity of the products is translated into approximately IC50, obtained from a dose-response curve of various concentrations tested and representing the dose giving 50% of specific inhibition (absolute IC50). Two independent experiments make it possible to calculate the mean of the IC50s. Study of pAKT expression in PC3 human prostate carcinoma cells measured by the MSD Multi-spot Biomarker Detection technique from Meso Scale Discovery (Test B): This test is based on measuring the expression of the AKT protein phosphorylated on serine 473 (P-AKT-S473), in the PC3 human prostate carcinoma line, by means of the technique based on a sandwich immunoassay using the MSD Multi-spot Biomarker Detection kit from Meso Scale Discovery: phospho-Akt (Ser473) whole cell lysate kit (#K151 CAD) or phospho-Akt (Ser473)/Total Akt whole cell lysate kit (#K151OOD).
The primary antibody specific for P-AKT-5473 (Kit #K151 CAD) is coated onto an electrode in each well of the 96-well plates of the MSD kit: after the addition of a protein lysate to each well, the signal is visualised by adding a secondary detection antibody labelled with an electrochemoluminescent compound. The procedure followed is that described in the kit.
On day 1, the PC3 cells are seeded into 96-well plates (TPP, #92096) at the concentration of 35 000 cells/well in 200 μl of DMEM medium (DMEM Gibco #11960-044) containing 10% of foetal calf serum (FCS Gibco, #10500-056) and 1% glutamine (L-Glu Gibco #25030-024), and incubated at 37° C., 5% CO2, overnight.
On day 2, the cells are incubated in the presence or absence of the test products for 1 to 2 h at 37° C. in the presence of 5% of CO2. The molecules, diluted in dimethyl sulphoxide (DMSO Sigma #D2650), are added from a 20-times concentrated stock solution, the final percentage of DMSO being 0.1%. The molecules are tested either at a single concentration of less than or equal to 10 μM, or at increasing concentrations in a range that can extend from less than 1 nM to 10 μM.
After this incubation, the cells are lysed for the preparation of the proteins. For this, after the culture medium has been drawn off, […] of complete Tris Lysis Buffer of the MSD kit containing the protease and phosphatase inhibitor solutions are added to the wells and the cells are lysed for 1 h at 4° C. with shaking At this stage, the plates containing the lysates can be frozen at −20° C. or at −80° C.
The wells of the 96-well plates of the MSD kit are saturated for 1 h at ambient temperature with the blocking solution of the MSD kit. Four washes are carried out with 150 μl of Tris Wash Buffer of the MSD kit. The lysates previously prepared are transferred into the 96-well multi-spot plates of the MSD kit and incubated for 1 h at ambient temperature, with shaking Four washes are carried out with 150 μl of Tris Wash Buffer of the MSD kit. 25 μl of the MSD sulpho-tag detection antibody solution are added to the wells and incubated for 1 h at ambient temperature, with shaking Four washes are carried out with 150 μl of Tris Wash Buffer of the MSD kit. 150 μl of Read Buffer of the MSD kit are added to the wells and the plates are read immediately on the 512400 instrument from Meso Scale Discovery.
The instrument measures a signal for each well. Wells without cells and containing the lysis buffer serve to determine the background noise that will be subtracted from all the measurements (min). The wells containing cells in the absence of product and in the presence of 0.1% DMSO are considered to be the 100% signal (max). The percentage inhibition is calculated for each concentration of test product according to the following formula: (1−((test−min)/(max−min)))×100. […]
What is called IC50 is the concentration that inhibits the measured activity by half. `COc1ccc2nc(Cc3nc(N4CCOCC4)cc(=O)[nH]3)[nH]c2c1` [Example 4, 2-[(6-methoxy-1H-benzimidazol-2-yl)methyl]-6-(morpholin-4-yl)pyrimidin-4(3H)-one] yielded a concentration for half-maximal inhibition (IC50) of 475 nM.

`Cc1ccc2nc(Cc3nc(N4CCOCC4)cc(=O)[nH]3)oc2c1` [Example 8, 2-[(6-methyl-1,3-benzoxazol-2-yl)methyl]-6-(morpholin-4-yl)pyrimidin-4(3H)one]: inhibition was half-maximal at 143 nM (IC50).

Compound `O=c1cc(N2CCOCC2)nc(Cc2nc3ccc(Br)cc3o2)[nH]1` [Example 9, 2-[(6-bromo-1,3-benzoxazol-2-yl)methyl]-6-(morpholin-4-yl)pyrimidin-4(3H)-one] registered an IC50 of 175 nM.

The compound `Cn1c(Cc2nc(N3CCOCC3)cc(=O)[nH]2)nc2cc(F)ccc21` [Example 11, 2-[(5-fluoro-1-methyl-1H-benzimidazol-2-yl)methyl]-6-(morpholin-4-yl)pyrimidin-4(3H)-one] returned an IC50 of 16 nM.

In turn, `O=c1cc(N2CCOCC2)nc(Cc2nc3cccc(F)c3o2)[nH]1` [Example 12, 2-[(7-fluoro-1,3-benzoxazol-2-yl)methyl]-6-(morpholin-4-yl)pyrimidin-4(3H)-one] gave an IC50 of 88 nM.

The compound `O=c1cc(N2CCOCC2)nc(Cc2nc3ccccc3n2-c2ccccc2)[nH]1` [Example 13, 6-(morpholin-4-yl)-2-[(1-phenyl-1H-benzimidazol-2-yl)methyl]pyrimidin-4(3H)-one] registered an IC50 of 8 nM.

In turn, `O=c1cc(N2CCOCC2)nc(Cc2nc3ccccc3n2Cc2ccccc2)[nH]1` [Example 14, 2-[(1-benzyl-1H-benzimidazol-2-yl)methyl]-6-(morpholin-4-yl)pyrimidin-4(3H)-one] had an IC50 of 105 nM.

The compound `CCn1c(Cc2nc(N3CCOCC3)cc(=O)[nH]2)nc2ccccc21` [Example 15, 2-[(1-ethyl-1H-benzimidazol-2-yl)methyl]-6-(morpholin-4-yl)pyrimidin-4(3H)-one] gave a concentration for half-maximal inhibition (IC50) of 26 nM.

On to `O=c1cc(N2CCOCC2)nc(Cc2nc3cc(F)c(F)cc3o2)[nH]1` [Example 16, 2-[(5,6-difluoro-1,3-benzoxazol-2-yl)methyl]-6-(morpholin-4-yl)pyrimidin-4(3H)-one], for which half-maximal inhibition (IC50) required 187 nM.

Turning to `O=c1cc(N2CCOCC2)nc(Cc2nc3ccc(Cl)cc3[nH]2)[nH]1` [Example 17, 2-[(6-chloro-1H-benzimidazol-2-yl)methyl]-6-(morpholin-4-yl)pyrimidin-4(3H)-one], the 50% inhibitory concentration (IC50) was 63 nM.

Compound `COCCn1c(Cc2nc(N3CCOCC3)cc(=O)[nH]2)nc2cc(F)ccc21` [Example 19, 2-{[5-fluoro-1-(2-methoxyethyl)-1H-benzimidazol-2-yl]methyl}-6-(morpholin-4-yl)pyrimidin-4(3H)-one] gave an IC50 of 109 nM.

The compound `O=c1cc(N2CCOCC2)nc(Cc2nc3ccc4ccccc4c3o2)[nH]1` [Example 20, 6-(morpholin-4-yl)-2-(naphtho[2,1-d][1,3]oxazol-2-ylmethyl)pyrimidin-4(3H)-one] yielded a concentration for half-maximal inhibition (IC50) of 1000 nM.

Regarding `COc1ccc2nc(Cc3nc(N4CCOCC4)cc(=O)[nH]3)oc2c1` [Example 21, 2-[(6-methoxy-1,3-benzoxazol-2-yl)methyl]-6-(morpholin-4-yl)pyrimidin-4(3H)-one], the half-maximal inhibitory concentration (IC50) came to 18 nM.

In turn, `O=c1cc(N2CCOCC2)nc(Cc2nc3ccc(F)c(F)c3o2)[nH]1` [Example 22, 2-[(6,7-difluoro-1,3-benzoxazol-2-yl)methyl]-6-(morpholin-4-yl)pyrimidin-4(3H)-one] returned an IC50 of 28 nM.

Take `O=c1cc(N2CCOCC2)nc(Cc2nc3cc(Cl)c(Cl)cc3[nH]2)[nH]1` [Example 23, 2-[(5,6-dichloro-1H-benzimidazol-2-yl)methyl]-6-(morpholin-4-yl)pyrimidin-4(3H)-one]: the IC50 was 193 nM.

With `Cc1ccc2nc(Cc3nc(N4CCOCC4)cc(=O)[nH]3)[nH]c2c1` [Example 24, 2-[(6-methyl-1H-benzimidazol-2-yl)methyl]-6-(morpholin-4 yl)pyrimidin-4(3H)-one], the half-maximal inhibitory concentration (IC50) stood at 140 nM.

With `O=c1cc(N2CCOCC2)nc(Cc2nc3c(Cl)cc(C(F)(F)F)cc3[nH]2)[nH]1` [Example 25, 2-{[4-chloro-6-(trifluoromethyl)-1H-benzimidazol-2-yl]methyl}-6-(morpholin-4-yl)pyrimidin-4(3H)-one], the IC50 was determined as 3000 nM.

As for `O=c1cc(N2CCOCC2)nc(Cc2nc3ccc(C(F)(F)F)cc3[nH]2)[nH]1` [Example 26, 6-(morpholin-4-yl)-2-{[6-(trifluoromethyl)-1H-benzimidazol-2-yl]methyl}pyrimidine-4(3H)-one], the IC50 turned out to be 961 nM.

`O=c1cc(N2CCOCC2)nc(Cc2nc3cc(F)c(Cl)cc3[nH]2)[nH]1` [Example 27, 2-[(5-chloro-6-fluoro-1H-benzimidazol-2-yl)methyl]-6-(morpholin-4-yl)pyrimidin-4(3H)-one] showed a half-inhibitory concentration (IC50) of 256 nM.

The compound `O=c1cc(N2CCOCC2)nc(Cc2nc3c(F)c(F)ccc3[nH]2)[nH]1` [Example 28, 2-[(6,7-difluoro-1H-benzimidazol-2-yl)methyl]-6-(morpholin-4-yl)pyrimidine-4(3H)-one] gave a concentration for half-maximal inhibition (IC50) of 585 nM.

Regarding `Cc1cc2nc(Cc3nc(N4CCOCC4)cc(=O)[nH]3)[nH]c2cc1Cl` [Example 29, 2-[(5-chloro-6-methyl-1H-benzimidazol-2-yl)methyl]-6-(morpholin-4-yl)pyrimidin-4(3H)-one], the half-inhibitory concentration (IC50) was determined as 506 nM.

Take `N#CCn1c(Cc2nc(N3CCOCC3)cc(=O)[nH]2)nc2ccccc21` [Example 30, (2-{[4-(morpholin-4-yl)-6-oxo-1,6-dihydropyrimidin-2-yl]methyl}-1H-benzimidazol-1-yl)acetonitrile]: the half-maximal inhibitory concentration (IC50) was 1340 nM.

Consider `O=c1cc(N2CCOCC2)nc(Cc2nc3cc(F)cc(F)c3[nH]2)[nH]1` [Example 31, 2-[(5,7-difluoro-1H-benzimidazol-2-yl)methyl]-6-(morpholin-4-yl)pyrimidine-4(3H)-one], for which 144 nM corresponded to half-maximal inhibition (IC50).

In turn, `CC(c1ccccc1)n1c(Cc2nc(N3CCOCC3)cc(=O)[nH]2)nc2cc(Cl)ccc21` (centres unmarked) [Example 32, 2-{[5-chloro-1-(1-phenylethyl)-1H-benzimidazol-2-yl]methyl}-6-(morpholin-4-yl)pyrimidine-4(3H)-one] yielded an IC50 of 206 nM.

`O=c1cc(N2CCOCC2)nc(Cc2nc3ccccc3n2C2CCCCC2)[nH]1` [Example 33, 2-[(1-cyclohexyl-1H-benzimidazol-2-yl)methyl]-6-(morpholin-4-yl)pyrimidin-4(3H)-one] registered a 50% inhibitory concentration (IC50) of 142 nM.

Regarding `O=c1cc(N2CCOCC2)nc(Cc2nc3cc(F)c(F)c(F)c3[nH]2)[nH]1` [Example 34, 6-(morphlolin-4-yl)-2-[(5,6,7-trifluoro-1H-benzimidazol-2-yl)methyl]pyrimidin-4(3H)-one], the IC50 stood at 208 nM.

Consider `O=c1cc(N2CCOCC2)nc(Cc2nc3c(Br)cc(F)cc3[nH]2)[nH]1` [Example 35, 2-[(4-bromo-6-fluoro-1H-benzimidazol-2-yl)methyl]-6-(morpholin-4-yl)pyrimidin-4(3H)-one], for which the half-maximal inhibitory concentration (IC50) is 115 nM.

In the case of `Cn1c(Cc2nc(N3CCOCC3)cc(=O)[nH]2)nc2ccc(Br)cc21` [Example 36, 2-[(6-Bromo-1-methyl-1H-benzimidazol-2-yl)methyl]-6-(morpholin-4-yl)pyrimidin-4(3H)-one], the IC50 was 28 nM.

`Cn1c(Cc2nc(N3CCOCC3)cc(=O)[nH]2)nc2ccc(F)c(F)c21` [Example 37, 2-[(6,7-Difluoro-1-methyl-1H-benzimidazol-2-yl)methyl]-6-(morpholin-4-yl)pyrimidin-4(3H)-one] returned an IC50 of 15 nM.
